Assay results published in patent US20250074920A1, “MACROCYCLIC COMPOUNDS AND USE AS KINASE INHIBITORS” (BLOSSOMHILL THERAPEUTICS, INC., priority 2022, published 2025).

What was measured:
Test in all cases: KINOMEscan kinase binding assay
[1] = tested on: ABL1(F3171)-phosphorylated; details: at 1 μM
Outline: (§1)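 KINOMEscan competition assay. T7-phage kinase fusions (E. coli lysates) or DNA-tagged HEK-293 kinases; immobilized biotinylated ligand on beads; 1 h RT incubation; qPCR detection of bound kinase. Output: % Ctrl or Kd.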

[2] = tested on: ABL1(H396P)-nonphosphorylated; details: at 1 μM
Outline: as §1

[3] = tested on: ABL1(H396P)-phosphorylated; details: at 1 μM
Outline: as §1

[4] = tested on: ABL1(Q252H)-nonphosphorylated; details: at 1 μM
Outline: as §1

ALK = details: at 1 μM
Outline: as §1

BTK = details: at 1 μM
Outline: as §1

CSF1R-autoinhibited = details: at 1 μM
Outline: as §1

CTK = details: at 1 μM
Outline: as §1

EGFR(G719S) = details: at 1 μM
Outline: as §1

EGFR(L858R, T790M) = details: at 1 μM
Outline: (§2)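 Competition binding format: a test compound at a single concentration displaces phage-tagged or DNA-tagged kinase from an immobilized affinity ligand. After washing, kinase is released with 0.5 μM free ligand (30 min, room temperature) and measured by qPCR. Data are given as % Ctrl.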

EPHA4 = details: at 1 μM
Outline: as §2

EPHA7 = details: at 1 μM
Outline: as §2

EPHB2 = details: at 1 μM
Outline: as §1

EPHB3 = details: at 1 μM
Outline: as §1

ERBB3 = details: at 1 μM
Outline: as §1

FGFR1 = details: at 1 μM
Outline: as §1

FGFR2 = details: at 1 μM
Outline: as §1

FGFR4 = details: at 1 μM
Outline: as §1

FGR = details: at 1 μM
Outline: as §1

FLT3(D835H) = details: at 1 μM
Outline: as §1

FLT3(N841I) = details: at 1 μM
Outline: as §1

FLT3(R834Q) = details: at 1 μM
Outline: as §1

FLT4 = details: at 1 μM
Outline: as §1

FYN = details: at 1 μM
Outline: as §1

[5] = tested on: JAK1(JH1domain-catalytic); details: for % Ctrl: JAK1(JH1domain-catalytic), at 1 μM; for Kd: read-out: JAK1(JH1 domain-catalytic) Kd
Outline: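 Dissociation constants came from the amount of kinase captured on the solid support across a test compound concentration series. Captured kinase, T7 phage-fused or HEK-293-made and DNA-tagged, was read by qPCR after a 1 h room-temperature binding step.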

KIT(V559D) = details: at 1 μM
Outline: as §1

KIT(V559D, T670I) = details: at 1 μM
Outline: as §1

LTK = details: at 1 μM
Outline: as §1

LYN = details: at 1 μM
Outline: as §1

MET(Y1235D) = details: at 1 μM
Outline: as §1

MUSK = details: at 1 μM
Outline: as §1

PDGFRB = details: at 1 μM
Outline: as §1

RET = details: at 1 μM
Outline: as §1

SRC = details: at 1 μM
Outline: as §1

SRMS = details: at 1 μM
Outline: as §1

SYK = details: at 1 μM
Outline: as §1

TEC = details: at 1 μM
Outline: as §1

TRKC = details: at 1 μM
Outline: as §1

TXK = details: at 1 μM
Outline: as §1

YES = details: at 1 μM
Outline: as §1

ZAP70 = details: at 1 μM
Outline: as §1

Structure (SMILES): Cc1cc2c([nH]1)/C=C1\C(=O)Nc3c(Cl)cc(cc31)-c1cn(C)nc1COC[C@@H](C)N(C)C2=O [Cpd. 5, [3a(4)Z,10R]-20-chloro-6,9,10,15-tetramethyl-10,11,13,15-tetrahydro-2H-1,17-(ethanediylidene)pyrazolo[4,3-m]dipyrrolo[3,2-f:3′,4′-i][1,4]oxazacyclopentadecine-3,8(5H,9H)-dione]
- % Ctrl [1]: 97%
- % Ctrl [2]: 98%
- % Ctrl [3]: 80%
- % Ctrl [4]: 79%
- % Ctrl (ALK): 71%
- % Ctrl (BTK): 68%
- % Ctrl (CSF1R-autoinhibited): 75%
- % Ctrl (CTK): 84%
- % Ctrl (EGFR(G719S)): 98%
- % Ctrl (EGFR(L858R, T790M)): 64%
- % Ctrl (EPHA4): 93%
- % Ctrl (EPHA7): 98%
- % Ctrl (EPHB2): 90%
- % Ctrl (EPHB3): 89%
- % Ctrl (ERBB3): 71%
- % Ctrl (FGFR1): 84%
- % Ctrl (FGFR2): 100%
- % Ctrl (FGFR4): 88%
- % Ctrl (FGR): 93%
- % Ctrl (FLT3(D835H)): 79%
- % Ctrl (FLT3(N841I)): 86%
- % Ctrl (FLT3(R834Q)): 98%
- % Ctrl (FLT4): 98%
- % Ctrl (FYN): 77%
- % Ctrl [5]: 100%
- Kd [5]: > 10 µM
- % Ctrl (KIT(V559D)): 96%
- % Ctrl (KIT(V559D, T670I)): 95%
- % Ctrl (LTK): 93%
- % Ctrl (LYN): 91%
- % Ctrl (MET(Y1235D)): 100%
- % Ctrl (MUSK): 100%
- % Ctrl (PDGFRB): 100%
- % Ctrl (RET): 95%
- % Ctrl (SRC): 100%
- % Ctrl (SRMS): 61%
- % Ctrl (SYK): 90%
- % Ctrl (TEC): 94%
- % Ctrl (TRKC): 98%
- % Ctrl (TXK): 94%
- % Ctrl (YES): 86%
- % Ctrl (ZAP70): 63%

Structure (SMILES): Cc1cc2c([nH]1)/C=C1\C(=O)Nc3ccc(cc31)-c1c(nn(C)c1C)COCCN(C)C2=O [Cpd. 2, [3a(4)Z]-6,9,15,16-tetramethyl-10,11,13,15-tetrahydro-2H-1,17-(ethanediylidene)pyrazolo[4,3-m]dipyrrolo[3,2-f:3′,4′-i][1,4]oxazacyclopentadecine-3,8(5H,9H)-dione]
- % Ctrl [1]: 98%
- % Ctrl [2]: 35%
- % Ctrl [3]: 64%
- % Ctrl [4]: 57%
- % Ctrl (ALK): 100%
- % Ctrl (BTK): 100%
- % Ctrl (CSF1R-autoinhibited): 100%
- % Ctrl (CTK): 93%
- % Ctrl (EGFR(G719S)): 77%
- % Ctrl (EGFR(L858R, T790M)): 62%
- % Ctrl (EPHA4): 100%
- % Ctrl (EPHA7): 89%
- % Ctrl (EPHB2): 97%
- % Ctrl (EPHB3): 100%
- % Ctrl (ERBB3): 100%
- % Ctrl (FGFR1): 100%
- % Ctrl (FGFR2): 85%
- % Ctrl (FGFR4): 100%
- % Ctrl (FGR): 100%
- % Ctrl (FLT3(D835H)): 31%
- % Ctrl (FLT3(N841I)): 24%
- % Ctrl (FLT3(R834Q)): 50%
- % Ctrl (FLT4): 19%
- % Ctrl (FYN): 100%
- % Ctrl [5]: 100%
- Kd [5]: > 10 µM
- % Ctrl (KIT(V559D)): 98%
- % Ctrl (KIT(V559D, T670I)): 82%
- % Ctrl (LTK): 100%
- % Ctrl (LYN): 74%
- % Ctrl (MET(Y1235D)): 87%
- % Ctrl (MUSK): 100%
- % Ctrl (PDGFRB): 79%
- % Ctrl (RET): 90%
- % Ctrl (SRC): 100%
- % Ctrl (SRMS): 90%
- % Ctrl (SYK): 100%
- % Ctrl (TEC): 83%
- % Ctrl (TRKC): 22%
- % Ctrl (TXK): 100%
- % Ctrl (YES): 100%
- % Ctrl (ZAP70): 96%

Structure (SMILES): Cc1cc2c([nH]1)/C=C1\C(=O)Nc3ccc(cc31)-c1c(nn(C)c1C)OCCCN(C)C2=O [Cpd. 1, [3a(4)Z]-6,9,15,16-tetramethyl-9,10,11,12-tetrahydro-15H-1,17-(ethanediylidene)pyrazolo[4,3-n]dipyrrolo[3,2-g:3′,4′-j][1,5]oxazacyclopentadecine-3,8(2H,5H)-dione]
- % Ctrl [1]: 64%
- % Ctrl [2]: 87%
- % Ctrl [3]: 96%
- % Ctrl [4]: 87%
- % Ctrl (ALK): 87%
- % Ctrl (BTK): 94%
- % Ctrl (CSF1R-autoinhibited): 82%
- % Ctrl (CTK): 58%
- % Ctrl (EGFR(G719S)): 80%
- % Ctrl (EGFR(L858R, T790M)): 89%
- % Ctrl (EPHA4): 96%
- % Ctrl (EPHA7): 91%
- % Ctrl (EPHB2): 97%
- % Ctrl (EPHB3): 99%
- % Ctrl (ERBB3): 100%
- % Ctrl (FGFR1): 100%
- % Ctrl (FGFR2): 96%
- % Ctrl (FGFR4): 95%
- % Ctrl (FGR): 91%
- % Ctrl (FLT3(D835H)): 96%
- % Ctrl (FLT3(N841I)): 97%
- % Ctrl (FLT3(R834Q)): 97%
- % Ctrl (FLT4): 94%
- % Ctrl (FYN): 91%
- % Ctrl [5]: 82%
- Kd [5]: > 10 µM
- % Ctrl (KIT(V559D)): 91%
- % Ctrl (KIT(V559D, T670I)): 93%
- % Ctrl (LTK): 74%
- % Ctrl (LYN): 100%
- % Ctrl (MET(Y1235D)): 98%
- % Ctrl (MUSK): 93%
- % Ctrl (PDGFRB): 100%
- % Ctrl (RET): 94%
- % Ctrl (SRC): 89%
- % Ctrl (SRMS): 93%
- % Ctrl (SYK): 98%
- % Ctrl (TEC): 91%
- % Ctrl (TRKC): 94%
- % Ctrl (TXK): 100%
- % Ctrl (YES): 100%
- % Ctrl (ZAP70): 94%
